Values of other authors in PubChem BioAssay AID1259410 (Chemical Carcinogenesis Research Information System (CCRIS), 2018).

System: rodent tumor promotion studies, tumor incidence
Assay: CCRIS tumor promotion studies
Conditions: Route [Promoter]: DERMAL, Species: MOUSE

Which results are given for `CCCCCCCCCCCCCC(=O)O[C@@H]1[C@@H](C)[C@@]2(O)[C@@H](C=C(CO)C[C@]3(O)C(=O)C(C)=C[C@@H]23)[C@@H]2C(C)(C)[C@]12OC(C)=O`?
outcome (Carcinogen: THIRAM, 137-26-8, Doses [Carcinogen]: 100 MG/KG BW IN 100 µL DMSO ONCE, Doses [Promoter]: 5 UG IN 100 µL ACETONE 3/WK FOR 51 WK BEGINNING 1 WK POST CARCINOGEN DOSE (STUDY DURATION: 52 WK), Route [Carcinogen]: DERMAL, Strain/Sex: SWISS/MALE): skin: tumor; outcome (Carcinogen: TRANS-4,5-DIHYDROBENZO[J]FLUORANTHENE-4,5-DIOL, 106542-80-7, Doses [Carcinogen]: 0, 1, 3 UMOL (TOTAL DOSE) IN ACETONE SOLUTION 1/2 D FOR 10 DOSES, Doses [Carcinogen]: 0, 1, 3 UMOL (TOTAL DOSE) IN ACETONE SOLUTION 1/2 D FOR 10 DOSES, Doses [Promoter]: 2.5 UG IN ACETONE 3/WK BEGINNING 10 D POST LAST CARCINOGEN DOSE AND CONTINUING FOR 20 WK (STUDY DURATION: 23 WK), Route [Carcinogen]: DERMAL, Strain/Sex: CD-1/FEMALE): skin: tumors; outcome (Carcinogen: TRANS-9,10-DIHYDRO-5,9,10-TRIHYDROXYBENZO[B]FLUORANTHENE, 114451-04-6, Doses [Carcinogen]: 0, 0.04, 0.12, 0.4 UMOL (TOTAL DOSE) APPLIED IN SUBDOSES 1/2 D FOR 5 WK, Doses [Carcinogen]: 0, 0.04, 0.12, 0.4 UMOL (TOTAL DOSE) APPLIED IN SUBDOSES 1/2 D FOR 5 WK, Doses [Promoter]: 2.5 UG IN 100 µL ACETONE 3/WK FOR 20 WK BEGINNING 10 D POST LAST CARCINOGEN DOSE (STUDY DURATION: 26 WK), Route [Carcinogen]: DERMAL, Strain/Sex: CD-1/FEMALE): skin: tumor; outcome (Carcinogen: TRANS-9,10-DIHYDRO-6,9,10-TRIHYDROXYBENZO[B]FLUORANTHENE, 114451-05-7, Doses [Carcinogen]: 0, 0.4 UMOL (TOTAL DOSE) APPLIED IN SUBDOSES 1/2 D FOR 5 WK, Doses [Promoter]: 2.5 UG IN 100 µL ACETONE 3/WK FOR 20 WK BEGINNING 10 D POST LAST CARCINOGEN DOSE (STUDY DURATION: 26 WK), Route [Carcinogen]: DERMAL, Strain/Sex: CD-1/FEMALE): skin: tumor; outcome (Carcinogen: TRANS-9,10-DIHYDROBENZO[J]FLUORANTHENE-9,10-DIOL, 76479-14-6, Doses [Carcinogen]: 0, 3 UMOL (TOTAL DOSE) IN ACETONE SOLUTION 1/2 D FOR 10 DOSES, Doses [Promoter]: 2.5 UG IN ACETONE 3/WK BEGINNING 10 D POST LAST CARCINOGEN DOSE AND CONTINUING FOR 20 WK (STUDY DURATION: 23 WK), Route [Carcinogen]: DERMAL, Strain/Sex: CD-1/FEMALE): skin: tumors; outcome (Carcinogen: VINYL CARBAMATE EPOXIDE, 82617-23-0, Doses [Carcinogen]: 0, 5.8, 11.5 UMOL IN 0.2 ML 15% DMSO 1/WK FOR 5 WK, Doses [Carcinogen]: 0, 5.8, 11.5 UMOL IN 0.2 ML 15% DMSO 1/WK FOR 5 WK, Doses [Promoter]: 0, 2.5 UG IN 0.1 ML ACETONE 18-24 HR PRIOR TO EACH CARCINOGEN DOSE THEN 2/WK FOR DURATION OF STUDY (STUDY DURATION: 22 W, Route [Carcinogen]: DERMAL, Strain/Sex: CD-1/FEMALE): skin: papilloma; outcome (Carcinogen: VINYL CARBAMATE EPOXIDE, 82617-23-0, Doses [Carcinogen]: 1.5, 11.5 UMOL IN 0.2 ML 15% DMSO ONCE, Doses [Promoter]: 0, 2.5 UG IN 0.1 ML ACETONE 18-24 HR PRIOR TO CARCINOGEN DOSE THEN 2/WK FOR DURATION OF STUDY (STUDY DURATION: 22 WK), Route [Carcinogen]: DERMAL, Strain/Sex: CD-1/FEMALE): skin: papilloma; outcome (Carcinogen: VINYL CARBAMATE, 15805-73-9, Doses [Carcinogen]: 0, 5.8, 11.5 UMOL IN 0.2 ML 15% DMSO 1/WK FOR 5 WK, Doses [Carcinogen]: 0, 5.8, 11.5 UMOL IN 0.2 ML 15% DMSO 1/WK FOR 5 WK, Doses [Promoter]: 0, 2.5 UG IN 0.1 ML ACETONE 18-24 HR PRIOR TO EACH CARCINOGEN DOSE THEN 2/WK FOR DURATION OF STUDY (STUDY DURATION: 22 W, Route [Carcinogen]: DERMAL, Strain/Sex: CD-1/FEMALE): skin: papilloma; outcome (Carcinogen: VINYL CARBAMATE, 15805-73-9, Doses [Carcinogen]: 1.15, 11.5 UMOL IN 0.2 ML 15% DMSO ONCE, Doses [Promoter]: 0, 2.5 UG IN 0.1 ML ACETONE 18-24 HR PRIOR TO CARCINOGEN DOSE THEN 2/WK FOR DURATION OF STUDY (STUDY DURATION: 22 WK), Route [Carcinogen]: DERMAL, Strain/Sex: CD-1/FEMALE): skin: papilloma; outcome (Carcinogen: X-RAY, Doses [Carcinogen]: 4.2 GY TO MALE MICE OF THE PARENT GENERATION, Doses [Promoter]: 0, 6.15 UG IN 0.1 ML ACETONE 2/WK FOR 24 WK ADMINISTERED TO F1 OFFSPRING OF IRRADIATED MALES BEGINNING AT 4 MO OF AGE (S, Route [Carcinogen]: WHOLE-BODY IRRADIATION, Strain/Sex: SHR/FEMALE): skin: tumor; outcome (Carcinogen: X-RAY, Doses [Carcinogen]: 4.2 GY TO MALE MICE OF THE PARENT GENERATION, Doses [Promoter]: 0, 6.15 UG IN 0.1 ML ACETONE 2/WK FOR 24 WK ADMINISTERED TO F1 OFFSPRING OF IRRADIATED MALES BEGINNING AT 4 MO OF AGE (S, Route [Carcinogen]: WHOLE-BODY IRRADIATION, Strain/Sex: SHR/MALE): skin: tumor; outcome (Carcinogen: X-RAY, Doses [Carcinogen]: 4.2 GY TO MALE MICE OF THE PARENT GENERATION, Doses [Promoter]: 0, 6.15 UG IN 0.1 ML ACETONE 2/WK FOR 24 WK ADMINISTERED TO F2 GENERATION OF IRRADIATED MALES BEGINNING AT 4 MO OF AGE (, Route [Carcinogen]: WHOLE-BODY IRRADIATION, Strain/Sex: SHR/FEMALE): skin: tumor; outcome (Carcinogen: X-RAY, Doses [Carcinogen]: 4.2 GY TO MALE MICE OF THE PARENT GENERATION, Doses [Promoter]: 0, 6.15 UG IN 0.1 ML ACETONE 2/WK FOR 24 WK ADMINISTERED TO F2 GENERATION OF IRRADIATED MALES BEGINNING AT 4 MO OF AGE (, Route [Carcinogen]: WHOLE-BODY IRRADIATION, Strain/Sex: SHR/MALE): skin: tumor
